The structures appear in SMILES notation. Where two headings read alike, the source gives them in different places.

Data on one compound can be found in patent US11530216B2, “Deuterated colony stimulating factor-1 receptor (CSF-1R) inhibitors” (Genzyme Corporation, priority 2020, dated 2022).

Assay [1] concerns MCP-1 production in primary murine microglial cells. As to the kind of experiment: MCP-1 ELISA, primary mouse microglia after CSF-1 stimulation. Format: cell-based. As to conditions: primary murine microglia, 100 ng/mL CSF-1 24 hours. The protocol:
Primary mouse microglia were suspended at a concentration of 5×10^5 cells/mL and 100 μL of this cell suspension was added to the inner 60 wells of three 96-well plates. Microglia cells were allowed to rest overnight at 37° C., 5% CO2. […] Cells were then stimulated with 100 ng/mL recombinant mouse CSF-1 for 24 hours. After stimulation, the culture supernatant was removed from each well and aliquoted into two different 96-well plates for subsequent ELISA assays. Plates were fixed with 4% PFA for future immunocytochemistry analysis.

The test system of another assay is primary murine microglia. Description: Immunostaining of primary microglia (Iba1+ area, DAPI+ nuclei) after CSF-1 stimulation. As to conditions: for IC50: primary murine microglia, CSF-1 stimulation. Format: cell-based, mouse. The protocol:
Primary mouse microglia were suspended at a concentration of 5×10^5 cells/mL and 100 μL of this cell suspension was added to the inner 60 wells of three 96-well plates. Microglia cells were allowed to rest overnight at 37° C., 5% CO2. […] Cells were then stimulated with 100 ng/mL recombinant mouse CSF-1 for 24 hours. After stimulation, the culture supernatant was removed from each well and aliquoted into two different 96-well plates for subsequent ELISA assays. Plates were fixed with 4% PFA for future immunocytochemistry analysis. Following the stimulation, cells were fixed with 4% PFA for 20 minutes at room temperature. Cells were then rinsed in PBS, washed 3×5 minutes in 0.2% PBT (0.2% Triton X-100 in PBS) and blocked with 10% donkey serum/0.2% PBT for 1 hour at room temperature. […] After staining, plates were imaged on the IN Cell Analyzer 2200 with 9 fields of view acquired per well. […] A one-way ANOVA was used to determine the statistical significance of differences between samples. […] Following a microglial stimulation, immunocytochemistry was completed with Iba1, Ki67, and DAPI to determine microglial morphology, proliferative state, and number. InCell imaging microsope and analysis software was used to quantify Iba1^+ area, and the number of DAPI^+ nuclei within the cultures.

For the compound `FC(F)(F)c1ccc(CNc2ccc(Cc3c[nH]c4ncc(Cl)cc34)cn2)cn1` [PLX3397, pexidartinib], the 50% inhibitory concentration (IC50) (in general, the concentration needed to halve the response being measured) in assay [1] (read-out: IC50, MCP-1 production) came out at 17.4 nM; with primary murine microglia (read-out: IC50 for DAPI (DAPI+ cell number)), 68.2 nM; in the assay with primary murine microglia (read-out: IC50 for Iba1 (Iba1+ area)), 50.4 nM. Also, the MCP-1 production result in assay [1] (3.125-400 nM) is “significantly reduced MCP-1 production in a concentration dependent manner”. Further, the “Iba1+ area” value with primary murine microglia (CSF-1 stimulation increases Iba1+ area) was “significantly abrogated this effect in a concentration dependent manner”. In addition, the “number of cells (DAPI+ cells)” value in the assay with primary murine microglia (CSF-1 stimulation increases cell number) is recorded as “reduce this number in a concentration dependent manner”.
